Here are results for 21 compounds from patent US20240317721A1, “PYRAZOLYL DERIVATIVES AS INHIBITORS OF THE KRAS MUTANT PROTEIN” (NOVARTIS AG, priority 2021, published 2024).

Usually IC50 stands for the concentration that inhibits the measured activity by half.

Bounds are passed on as bounds.

This experiment concerns the target KRasG12C (M1-K169, biotinylated on the N-terminus) (Homo sapiens (Human), UniProt P01116, G12C). Briefly: Covalent competition assay: scintillation proximity assay (SPA) quantifying covalent modification of KRASG12C. Format: binding. To be noted: competition with radiolabeled covalent probe (Compound B/Compound A), 2 hours incubation, 10 nM KRasG12C. The protocol:
Cells were harvested by centrifugation and frozen at −80° C. until further processing. […] The cells were lysed by 4 passages through an Avestin Emulsiflex at about 20000 psi and insoluble debris removed by centrifugation and filtered through a 0.45 µm Durapore membrane (Millipore). […] Eluted protein fractions were analyzed by Novex NuPage 4-12% PAGE. […] The protein in the flow through was subjected to a final polishing step on a HiLoad 16/60 Superdex 200 prep grade size-exclusion column pre-equilibrated with SEC-buffer (20 mM HEPES pH 7.4, 150 mM NaCl, 5 mM MgCl2, 1 µM GDP). Positive fractions were determined by PAGE (Novex NuPage 4-12% BisTris) analysis.
A scintillation proximity assay (SPA) was used to determine the potency of the compounds.
This assay measures the ability of the test compound to compete with the radiolabeled covalent probe for binding to and covalently modify KRASG12C.
(see above for synthesis of Compound A and Compound B). A serial dilution of the compounds to be tested is mixed with a fixed concentration of the radiolabeled covalent probe before incubation with KRASG12C:GDP as described below. KRASG12C can either be bound by the radiolabeled covalent probe (Compound B), resulting in light being emitted from the beads, or bound by covalent test compound preventing signal generation.
A 1/20 isotopic dilution of labeled (Compound B) and non-labeled covalent (Compound A) probe was prepared and added to all wells on the plate. The reaction was started by addition of KRasG12C (M1-K169, biotinylated on the N-terminus) to the compounds and incubated for 2 hours with continuous agitation allowing for full modification of KRasG12C with probe or test compounds. Final concentrations in an assay volume of 40 μL were 10 nM KRasG12C, 25 nM radio-ligand and 475 nM unlabelled ligand. The assay buffer contained 20 mM Tris-HCl pH 7.5 (Invitrogen), 150 mM NaCl (Sigma Aldrich), 0.1 mM MgCl2 (Sigma Aldrich), and 0.01% Tween-20 (Sigma Aldrich). Following addition of 50 μL of a 400 μg/mL suspension of streptavidin-coated YSi beads (Perkin Elmer), plates were incubated for a further 30 min with continuous agitation before reading the plates on a scintillation counter (Topcount NXT 384 (Packard).
Evaluation was carried out using assay data analysis software (such as the standard Novartis in-house Helios software application, Novartis Institutes for BioMedical Research, unpublished) using the methods described in Formenko et al., Robust Regression for high-throughput screening, Computer Methods and Programs in Biomedicine, 2006, 82, 31-37. Following normalization of activity values for the wells to % inhibition (% inhibition=[(high control−sample)/(high control−low control)]×100), IC50 fitting was carried out from the duplicate determinations present on each plate according to Formenko et al., 2006.
Evaluation can also be carried out using commercially available software which is designed to derive IC50 values using 4-parameter fits (e.g. GraphPad Prism, XL fit).
For orientation: In a scintillation proximity assay essentially only radioactivity close to the scintillant gives light.
Regarding `C=CC(=O)N1CC2(CC(n3nc(N4CCN(C5CCOCC5)C[C@]4(C)COC)c(-c4c(Cl)c(C)cc5[nH]nc(N)c45)c3C)C2)C1` (single isomer, unassigned) [Example 90a], the 50% inhibitory concentration (IC50) worked out at 0.023 µM.

Take `C=CC(=O)N1CC2(CC(n3nc(N4CC(c5cccnc5)C4)c(-c4c(Cl)c(C)cc5[nH]ncc45)c3C)C2)C1` (single isomer, unassigned) [Example 37a, 1-(6-(4-(5-chloro-6-methyl-1H-indazol-4-yl)-5-methyl-3-(3-(pyridin-3-yl)azetidin-1-yl)-1H-pyrazol-1-yl)-2-azaspiro[3.3]heptan-2-yl)prop-2-en-1-one]: the IC50 was more than 50 µM. Take `C=CC(=O)N1CC2(CC(n3nc(N4CCN(C(C)=O)CC4(C)C)c(-c4c(Cl)c(C)cc5[nH]ncc45)c3C3CC3)C2)C1` (single isomer, unassigned) [Example 24b, 1-(6-(3-(4-acetyl-2,2-dimethylpiperazin-1-yl)-4-(5-chloro-6-methyl-1H-indazol-4-yl)-5-cyclopropyl-1H-pyrazol-1-yl)-2-azaspiro[3.3]heptan-2-yl)prop-2-en-1-one]: the half-inhibitory concentration (IC50) was 0.167 µM. In the case of `C=CC(=O)N1CC2(CC(n3nc(N4CCC(N5CC6COCC(C5)O6)CC4(C)C)c(-c4c(Cl)c(C)cc5[nH]ncc45)c3C)C2)C1` (single isomer, unassigned) [Example 119a, 1-(6-(3-(4-(3,9-dioxa-7-azabicyclo[3.3.1]nonan-7-yl)-2,2-dimethylpiperidin-1-yl)-4-(5-chloro-6-methyl-1H-indazol-4-yl)-5-methyl-1H-pyrazol-1-yl)-2-azaspiro[3.3]heptan-2-yl)prop-2-en-1-one], the half-maximal inhibitory concentration (IC50) is 2.8 µM. In the case of `C=CC(=O)N1CC2(CC(n3nc(N4CC[C@@H](CN5CCOC6CS(=O)(=O)CC65)CC4(C)C)c(-c4c(Cl)c(Cl)cc5[nH]ncc45)c3C)C2)C1` (single isomer, unassigned) [Example 266a, 1-(6-(4-(5,6-dichloro-1H-indazol-4-yl)-3-((R)-4-(((4aR*,7aS*)-6,6-dioxidohexahydro-4H-thieno[3,4-b][1,4]oxazin-4-yl)methyl)-2,2-dimethylpiperidin-1-yl)-5-methyl-1H-pyrazol-1-yl)-2-azaspiro[3.3]heptan-2-yl)prop-2-en-1-one], the IC50 was determined as 3.1 µM. For `C=CC(=O)N1CC2(CC(n3nc(N4CCC(O)CC4(C)C)c(-c4c(Cl)c(C)cc5[nH]ncc45)c3C)C2)C1` (single isomer, unassigned) [Example 30b, 1-(6-(4-(5-chloro-6-methyl-1H-indazol-4-yl)-3-(4-hydroxy-2,2-dimethylpiperidin-1-yl)-5-methyl-1H-pyrazol-1-yl)-2-azaspiro[3.3]heptan-2-yl)prop-2-en-1-one] the value was 2.7 µM.

Take `C=CC(=O)N1CC2(CC(n3nc(N4CC[C@@H](CN(CCO)CCOC)CC4(C)C)c(-c4c(Cl)c(Cl)cc5[nH]ncc45)c3C)C2)C1` (single isomer, unassigned) [Example 253a]: the 50% inhibitory concentration (IC50) worked out at 1.5 µM. In the case of `C=CC(=O)N1CC2(CC(n3nc(N4CCC(CN5C[C@@H]6C[C@H]5CO6)CC4(C)C)c(-c4c(Cl)c(Cl)cc5[nH]ncc45)c3C)C2)C1` (single isomer, unassigned) [Example 217a], the IC50 amounted to 0.928 µM. The same measure for `C=CC(=O)N1CC2(CC(n3nc(N4CCN(C5CCOC5)CC45CCC5)c(-c4c(Cl)c(C)cc5[nH]ncc45)c3C)C2)C1` (single isomer, unassigned) [Example 132b, 1-(6-(4-(5-chloro-6-methyl-1H-indazol-4-yl)-5-methyl-3-(8-(tetrahydrofuran-3-yl)-5,8-diazaspiro[3.5]nonan-5-yl)-1H-pyrazol-1-yl)-2-azaspiro[3.3]heptan-2-yl)prop-2-en-1-one]: 4.5 µM. For `C=CC(=O)N1CC2(CC(n3nc(N4CCC(CN5CCOCC5)CC4(C)CC)c(-c4c(Cl)c(C)cc5[nH]ncc45)c3C)C2)C1` (single isomer, unassigned) [Example 222b, 1-(6-(4-(5-chloro-6-methyl-1H-indazol-4-yl)-3-(2-ethyl-2-methyl-4-(morpholinomethyl)piperidin-1-yl)-5-methyl-1H-pyrazol-1-yl)-2-azaspiro[3.3]heptan-2-yl)prop-2-en-1-one] the value was 0.007 µM; for `C=CC(=O)N1CC2(CC(n3nc(N4CCN(C5COC5)CC4(CC)CC)c(-c4c(Cl)c(C)cc5[nH]ncc45)c3C)C2)C1` (single isomer, unassigned) [Example 152b, 1-(6-(4-(5-chloro-6-methyl-1H-indazol-4-yl)-3-(2,2-diethyl-4-(oxetan-3-yl)piperazin-1-yl)-5-methyl-1H-pyrazol-1-yl)-2-azaspiro[3.3]heptan-2-yl)prop-2-en-1-one], 0.045 µM; for `C=CC(=O)N1CC2(CC(n3nc(N4CC[C@@H](CN5C[C@@H]6CN(C(C)=O)C[C@@H]6C5)CC4(C)C)c(-c4c(Cl)c(Cl)cc5[nH]ncc45)c3C)C2)C1` (single isomer, unassigned) [Example 295b], 0.006 µM. For `C=CC(=O)N1CC2(CC(n3nc(N4CCC(CN5CCS(=O)(=O)CC5)CC4(C)C)c(-c4c(Cl)c(Cl)cc5[nH]ncc45)c3C)C2)C1` (single isomer, unassigned) [Example 235b, 1-(6-(4-(5,6-dichloro-1H-indazol-4-yl)-3-(4-((1,1-dioxidothiomorpholino)methyl)-2,2-dimethylpiperidin-1-yl)-5-methyl-1H-pyrazol-1-yl)-2-azaspiro[3.3]heptan-2-yl)prop-2-en-1-one] the value was 0.01 µM.

Consider `C=CC(=O)N1CC2(CC(n3nc(N4CCN(C5CCOCC5)CC45CCC5)c(-c4c(Cl)c(Cl)cc5[nH]ncc45)c3C)C2)C1` (single isomer, unassigned) [Example 145a, 1-(6-(4-(5,6-dichloro-1H-indazol-4-yl)-5-methyl-3-(8-(tetrahydro-2H-pyran-4-yl)-5,8-diazaspiro[3.5]nonan-5-yl)-1H-pyrazol-1-yl)-2-azaspiro[3.3]heptan-2-yl)prop-2-en-1-one], for which the IC50 worked out at 4.3 µM.

For `C=CC(=O)N1CC2(CC(n3nc(N4CCN(C[C@@H]5COCCO5)C[C@@]4(CC)C(F)F)c(-c4c(Cl)c(C)cc5[nH]ncc45)c3C)C2)C1` (single isomer, unassigned) [Example 107a], the IC50 was more than 5 µM. Take `C=CC(=O)N1CC2(CC(n3nc(N4CC[C@@H](CN5CCN(C6COC6)CC5)CC4(C)C)c(-c4c(Cl)c(F)cc5[nH]ncc45)c3C)C2)C1` (single isomer, unassigned) [Example 245a]: the IC50 turned out to be 1.8 µM. For `C=CC(=O)N1CC2(CC(n3nc(N4CC[C@@H](CN5CCOCC5)CC4(C)C)c(-c4c(Cl)c(C)cc5[nH]nc(C)c45)c3C#N)C2)C1` (single isomer, unassigned) [Example 225b] the value was more than 5 µM; for `C=CC(=O)N1CC2(CC(n3nc(N4CCN(C5CCOCC5)CC45CCC5)c(-c4c(Cl)c(C)cc5[nH]ncc45)c3C)C2)C1` (single isomer, unassigned) [Example 130a, 1-(6-(4-(5-Chloro-6-methyl-1H-indazol-4-yl)-5-methyl-3-(8-(tetrahydro-2H-pyran-4-yl)-5,8-diazaspiro[3.5]nonan-5-yl)-1H-pyrazol-1-yl)-2-azaspiro[3.3]heptan-2-yl)prop-2-en-1-one], more than 5 µM; for `C=CC(=O)N1CC2(CC(n3nc(N4CCN(C[C@@H]5COCCO5)C[C@]4(C)CCOC)c(-c4c(Cl)c(C)cc5[nH]ncc45)c3C)C2)C1` (single isomer, unassigned) [Example 85a], 5 µM. The same measure for `C=CC(=O)N1CC2(CC(n3nc(N4CCC(O)(CN5CCOCC5)CC4(C)C)c(-c4c(Cl)c(Cl)cc5[nH]ncc45)c3C)C2)C1` (single isomer, unassigned) [Example 237a, 1-(6-(4-(5,6-dichloro-1H-indazol-4-yl)-3-(4-hydroxy-2,2-dimethyl-4-(morpholinomethyl)piperidin-1-yl)-5-methyl-1H-pyrazol-1-yl)-2-azaspiro[3.3]heptan-2-yl)prop-2-en-1-one]: more than 5 µM.

`C=CC(=O)N1CC2(CC(n3nc(N4CC[C@@H](CN5CCN6CCOC[C@@H]6C5)CC4(C)C)c(-c4c(Cl)c(Cl)cc5[nH]ncc45)c3C)C2)C1` (single isomer, unassigned) [Example 279a]: the IC50 worked out at 3.8 µM.
